Reference: patent US20230000811A1, “COMPOSITIONS FOR DISRUPTING BIOFILM FORMATION AND FOR TREATING BIOFILM-RELATED DISORDERS” (AHV International B.V., priority 2020, published 2023)

Key:
Format in all cases: cell-based
[1] = system: heterotrophic microbial biofilm; experiment: Biofilm eradication in PBR (photobioreactor), released CFU's
Method: In order to determine the anti-biofilm effect of PTSO, PTS and DPD (dipropyl disulfide), a biofilm was grown under controlled conditions in a glass tube reactor, the PBR. A photobioreactor was used as model system because biofilm formation was clearly visible in the glass tubes. After a mature biofilm was formed, increasing levels of pure PTSO, PTS or DPD were added and the biofilm was removed by titration of pure PTSO, PTS or DPD and the dosages were determined that the biofilm was eradicated. Hereafter, the microbial composition was determined of the biofilm by deep sequencing.
Heterotrophic microbial biofilm: a biofilm was cultivated in a 26.5-liter glass photobioreactor (PBR) with a tube length of 37-meter incl. bends (the GemTube RD-25 Glass of LGEM). The PBR was filled with 22 liters of not sterilized medium (fable 1).
The medium further contained 1 g/l glucose. Inoculation took place by the adding 500 ml ditch water from the Zuidpolder near Delfgauw. Air was pumped in with a rate of 1.0 liter/min: at this setting the medium circulation through the PBR in the medium was as low as possible but there was a stable hold-up to realize medium circulation in the PBR. The PBR was covered with a dark plastic screen to prevent exposure to the light. Incubation took place at 12-18° C. and pH was controlled 5 times per week to 5.2-5.7, once per 1.5 day. After a total dosage of 5 g/l glucose, (after 1 week) a slimy layer (biofilm) was formed that covers the whole inner surface of the glass tube. The medium was replaced by fresh medium without glucose when the biofilm was formed.
Pure PTSO and PTS were obtained as is indicated in example 1 and stable solutions were prepared in water by sonication of 1000× diluted mixtures. DPD (dipropyl disulfide >98% pure) was supplied by Sigma. After each addition step the biofilm culture was incubated for 24 hours to observe the stability of the biofilm.
The numbers of aerobic, anaerobic/micro-aerophilic and fungal CFU's in the biofilm and supernatant were determined according to standard operating procedures as follows: for aerobic colony forming units per ml (CFU/ml) see https://www.iso.org/standard/53728.html; for the determination of anaerobic CFU's/ml see https://www.thermofisher.com/order/catalog/product/AN0025A#HAN0025A (the plates are incubated in an oxygen-free container) and with respect to the numbers of colony forming unites for fungi see http://edgeanalytical.com/wp-content/uploads/Food_AOAC-997.02.pdf (see Table 2).
Another sample of the biofilm was drawn and a part was stored at minus 80 degrees as inoculum material for further studies. The other part of the biofilm was dissolved by gentle sonification and used to determine the aerobic, anaerobic and fungal numbers of colony forming units as described above. Hereafter it was calculated whether the numbers of colony forming microorganisms in the medium corresponded with the number of microorganisms in the biofilm prior to the treatment. In this way it was calculated whether the microorganisms were killed by the treatments, or that the bacteria remained alive and that only the biofilm was solubilized.
In order to investigate whether PTSO has a destabilizing effect of the biofilm or simply kills the microorganisms, samples were drawn from the biofilm before the treatments and samples of the liquid medium were drawn before and after treatment and were inoculated as described above to determine the number of colony forming units. Hereafter it was calculated whether the numbers of colony forming microorganisms in the medium corresponded with the number of microorganisms in the biofilm prior to the treatment. In this way it was calculated whether the microorganisms are killed by the treatments, or that the bacteria remained alive and that only the biofilm was solubilized (fable 6).

[2] = system: Staphylococcus aureus strains; experiment: MBIC 90 (minimum biofilm inhibitory concentration)
Source text: (§1) In this example the following bacterial strains were used: Staphyllococcus aureus ATCC 25923 obtained from the ATCC collection; Staphyllococcus aureus 074 was kindly provided by prof. Fink, Faculty of Veterinary Medicine, Utrecht University, the Netherlands, described as a clinical isolate from cows with mastitis. Information for the strain is further given in: Melchior, M. B., Fink-Gremmels, J., & Gaastra, W. (2006). Comparative Assessment of the Antimicrobial Susceptibility of Staphylococcus aureus Isolates from Bovine Mastitis in Biofilm Versus Planktonic Culture. Journal of Veterinary Medicine Series B, 53(7), 326-332; Staphyllococcus aureus ATCC 15564 obtained from the ATCC collection and Streptococcus uberis clinical isolate from a cow with mastitis, part from the collection of Department of Veterinary Microbiology, Infectious and Parasitic Diseases, Trakia University, Bulgary.
(§2) Minimum Biofilm Inhibitory Concentration (MBIC) and Microtiter Biofilm Eradication concentration (MBEC) are defined and measured as indicated in table 7.
(§3) Applying the methods as summarised in table 7, the above-mentioned bacteria were tested with PTSO/PTS enriched plant extract, pure PTSO, and pure PTS as described in example 1 and DPD as described in example 2.

Streptococcus uberis [3] = experiment: MBIC 90 (minimum biofilm inhibitory concentration); settings: Str. uberis clinical isolate
Source text: as §1, §2, §3

[4] = system: Staphylococcus aureus strains; experiment: MBEC (biofilm eradication)
Source text: as §1, §2, §3

Streptococcus uberis [5] = experiment: MBEC (biofilm eradication); settings: Str. uberis clinical isolate
Source text: as §1, §2, §3

[6] = PTSO cumulative dosage 0.05 ul/l culture (dose 0.05), day 2
[7] = PTSO cumulative dosage 0.15 ul/l culture (dose 0.1), day 6
[8] = PTSO cumulative dosage 0.65 ul/l culture (dose 0.5), day 8
[9] = PTSO cumulative dosage 1.65 ul/l culture (dose 1.0), day 13
[10] = PTSO cumulative dosage 3.65 ul/l culture (dose 2.0), day 15
[11] = after 208 mg pure DPD/liter culture
[12] = total dose DPD (cumulative) 1 ul/l (dose 0.50)
[13] = total dose DPD (cumulative) 2 ul/l (dose 1.00)
[14] = total dose DPD (cumulative) 7 ul/l (dose 5.00)
[15] = total dose DPD (cumulative) 17 ul/l (dose 10.00)
[16] = total dose DPD (cumulative) 67 ul/l (dose 50.00)
[17] = total dose DPD (cumulative) 117 ul/l (dose 50.00)
[18] = total dose DPD (cumulative) 167 ul/l (dose 50.00)
[19] = total dose DPD (cumulative) 217 ul/l (dose 50.00)
[20] = total dose DPD (cumulative) 267 ul/l (dose 50.00)
[21] = total dose DPD (cumulative) 317 ul/l (dose 50.00)
[22] = total dose DPD (cumulative) 367 ul/l (dose 50.00)
[23] = total dose DPD (cumulative) 417 ul/l (dose 50.00)
[24] = total dose DPD (cumulative) 467 ul/l (dose 50.00)
[25] = total dose DPD (cumulative) 517 ul/l (dose 50.00)

With `CCCSS(=O)(=O)CCC` (single isomer, unassigned) [PTSO, propyl-propane thiosulfonate] the “Aerobic CFU's after 24 hours” value [1, 6] was 2,033 ×1000, the “Anaerobic CFU's after 24 hour” value [1, 6] was 383 ×1000 and the “Fungal CFU's after 24 hours” value [1, 6] was 150 ×1000. The “Aerobic CFU's after 24 hours” value [1, 7] was 3,367 ×1000, the “Anaerobic CFU's after 24 hour” value [1, 7] was 750 ×1000 and the “Fungal CFU's after 24 hours” value [1, 7] was 150 ×1000. The “Aerobic CFU's after 24 hours” value [1, 8] was 6,267 ×1000, the “Anaerobic CFU's after 24 hour” value [1, 8] was 1,127 ×1000 and the “Fungal CFU's after 24 hours” value [1, 8] was 517 ×1000. For the same compound, the “Aerobic CFU's after 24 hours” value [1, 9] was 17,333 ×1000, the “Anaerobic CFU's after 24 hour” value [1, 9] was 4,400 ×1000 and the “Fungal CFU's after 24 hours” value [1, 9] was 20,333 ×1000. The “Aerobic CFU's after 24 hours” value [1, 10] was 5,867 ×1000, the “Anaerobic CFU's after 24 hour” value [1, 10] was 2,933 ×1000 and the “Fungal CFU's after 24 hours” value [1, 10] was 1,567 ×1000. The “Total (released from biofilm) colony forming units/ml, In culture supernatant” value ([1]; after 0.9 mg pure PTSO/liter culture) was 42,000 units/ml (×1000), the “Total colony forming units/ml, In biofilm” value ([1]; after 0.9 mg pure PTSO/liter culture, 0* means biofilm had disappeared) was 0* units/ml (×1000) and the “% volume biofilm in relation to culture volume” value ([1]; after 0.9 mg pure PTSO/liter culture, before start treatment 18) was 0%. The “total dosage at which the biofilm became significantly thinner” value ([1]; mature biofilm in PBR, visual observation) was 0.65 ul/l, the “total dosage at which disintegration / release of the biofilm becomes visible” value ([1]; mature biofilm in glass tube PBR, visual observation) was 0.05 ul/l and the “MBIC 90” value ([2]; St. aureus 074) was 128 µg/mL. The “MBIC 90” value ([2]; St. aureus ATCC 15564) was 128 µg/mL, the “MBIC 90” value ([2]; St. aureus ATCC 25923) was 128 µg/mL and the “MBIC 90” value (Streptococcus uberis [3]) was 128 µg/mL. The “MBEC (biofilm eradication)” value ([4]; St. aureus 074) was 256 µg/mL, the “MBEC (biofilm eradication)” value ([4]; St. aureus ATCC 15564) was 256 µg/mL and the “MBEC (biofilm eradication)” value ([4]; St. aureus ATCC 25923) was 512 µg/mL. For the same compound, the “MBEC (biofilm eradication)” value (Streptococcus uberis [5]) was 512 µg/mL.

`CCCSSCCC` [DPD, dipropyl disulfide] was tested, and the “state of the biofilm at the highest dosages (visual)” value ([1]; PBR, highest dosage(s) added) was “did not remove the remainder of the thin biofilm”, the “Total (released from biofilm) colony forming units/ml, In culture supernatant” value [1, 11] was 3,403 units/ml (×1000) and the “Total colony forming units/ml, In biofilm” value [1, 11] was 0 units/ml (×1000). The “% volume biofilm in relation to culture volume” value ([1]; after 208 mg pure DPD/liter culture, before start treatment 7) was 0%, the “total addition at which the biofilm started to release from the glass” value ([1]; after dose 8, visual observation) was 160 mg pure DPD/liter and the “Aerobic CFU's after 24 hours” value [1, 12] was 400000 ×1000. The “Anaerobic CFU's after 24 hour” value [1, 12] was 45333 ×1000, the “Fungal CFU's after 24 hours” value [1, 12] was 33333 ×1000 and the “Aerobic CFU's after 24 hours” value [1, 13] was 440000 ×1000. For the same compound, the “Anaerobic CFU's after 24 hour” value [1, 13] was 43333 ×1000, the “Fungal CFU's after 24 hours” value [1, 13] was 29000 ×1000 and the “Aerobic CFU's after 24 hours” value [1, 14] was 390000 ×1000. The “Anaerobic CFU's after 24 hour” value [1, 14] was 43333 ×1000, the “Fungal CFU's after 24 hours” value [1, 14] was 35000 ×1000 and the “Aerobic CFU's after 24 hours” value [1, 15] was 403333 ×1000. The “Anaerobic CFU's after 24 hour” value [1, 15] was 39333 ×1000, the “Fungal CFU's after 24 hours” value [1, 15] was 25333 ×1000 and the “Aerobic CFU's after 24 hours” value [1, 16] was 376667 ×1000. For the same compound, the “Anaerobic CFU's after 24 hour” value [1, 16] was 40333 ×1000, the “Fungal CFU's after 24 hours” value [1, 16] was 24000 ×1000 and the “Aerobic CFU's after 24 hours” value [1, 17] was 426667 ×1000. The “Anaerobic CFU's after 24 hour” value [1, 17] was 37667 ×1000, the “Fungal CFU's after 24 hours” value [1, 17] was 22333 ×1000 and the “Aerobic CFU's after 24 hours” value [1, 18] was 563333 ×1000. For the same compound, the “Anaerobic CFU's after 24 hour” value [1, 18] was 43000 ×1000, the “Fungal CFU's after 24 hours” value [1, 18] was 18333 ×1000 and the “Aerobic CFU's after 24 hours” value [1, 19] was 1766667 ×1000. For the same compound, the “Anaerobic CFU's after 24 hour” value [1, 19] was 267000 ×1000, the “Fungal CFU's after 24 hours” value [1, 19] was 18667 ×1000 and the “Aerobic CFU's after 24 hours” value [1, 20] was 1413333 ×1000. For the same compound, the “Anaerobic CFU's after 24 hour” value [1, 20] was 340000 ×1000, the “Fungal CFU's after 24 hours” value [1, 20] was 17000 ×1000 and the “Aerobic CFU's after 24 hours” value [1, 21] was 936667 ×1000. For the same compound, the “Anaerobic CFU's after 24 hour” value [1, 21] was 100000 ×1000, the “Fungal CFU's after 24 hours” value [1, 21] was 223333 ×1000 and the “Aerobic CFU's after 24 hours” value [1, 22] was 163333 ×1000. For the same compound, the “Anaerobic CFU's after 24 hour” value [1, 22] was 35667 ×1000, the “Fungal CFU's after 24 hours” value [1, 22] was 273333 ×1000 and the “Aerobic CFU's after 24 hours” value [1, 23] was 107333 ×1000. For the same compound, the “Anaerobic CFU's after 24 hour” value [1, 23] was 19333 ×1000, the “Fungal CFU's after 24 hours” value [1, 23] was 24333 ×1000 and the “Aerobic CFU's after 24 hours” value [1, 24] was 103333 ×1000. For the same compound, the “Anaerobic CFU's after 24 hour” value [1, 24] was 9333 ×1000, the “Fungal CFU's after 24 hours” value [1, 24] was 12667 ×1000 and the “Aerobic CFU's after 24 hours” value [1, 25] was 98333 ×1000. For the same compound, the “Anaerobic CFU's after 24 hour” value [1, 25] was 5467 ×1000, the “Fungal CFU's after 24 hours” value [1, 25] was 8000 ×1000 and the “total dosage up to which biofilm release continued” value ([1]; visual observation) was 317 ul pure DPD/liter. The “MBIC 90” value ([2]; St. aureus 074) was greater than 1024 µg/mL, the “MBIC 90” value ([2]; St. aureus ATCC 15564) was greater than 1024 µg/mL and the “MBIC 90” value ([2]; St. aureus ATCC 25923) was greater than 1024 µg/mL. For the same compound, the “MBIC 90” value (Streptococcus uberis [3]) was greater than 1024 µg/mL, the “MBEC (biofilm eradication)” value ([4]; St. aureus 074) was 1024 µg/mL and the “MBEC (biofilm eradication)” value ([4]; St. aureus ATCC 15564) was greater than 1024 µg/mL. The “MBEC (biofilm eradication)” value ([4]; St. aureus ATCC 25923) was greater than 1024 µg/mL and the “MBEC (biofilm eradication)” value (Streptococcus uberis [5]) was greater than 1024 µg/mL.
